# Where a name gives a salt, the structure may show the parent alone.
# Test system: live vaccine strain (LVS) of Francisella tularensis
# Test: microbe, parasite or virus in culture
# Assay type: cell-based
# Conditions: introduction of the methyl-linked phenyl ring
smiles,measurement,value
"CN[C@@H]1[C@H](O)[C@H](NC)[C@H]2O[C@]3(O)[C@H](O[C@@H]2[C@H]1O)O[C@H](C)C[C@@]3(O)CNCc1ccccc1 [compound 1, 3′-(R)-3′-(benzylaminomethyl)dihydrospectinomycin Trihydrochloride]",activity against Francisella tularensis LVS,well tolerated

# Source: patent publication US10266544B2, “Aryl substituted aminomethyl spectinomycin analogs as antibacterial agents” (ST. JUDE CHILDREN'S RESEARCH HOSPITAL, INC., priority 2013, dated 2019)
